The source of these data is patent US20240360178A1, “MACROCYCLIC IMMUNOMODULATORS” (Bristol-Myers Squibb Company, priority 2021, published 2024).

Positions of bridges follow the written chain, without caps; N, C: chain ends. Non-standard residues stand in square brackets, D forms with d. Residues, ends and D or L forms follow the SMILES beside them. ξ: configuration not given here. *: point of attachment. Phe(4-COOH) = N[C@@H](Cc1ccc(C(=O)O)cc1)C(=O)O; Bip = N[C@@H](Cc1ccc(-c2ccccc2)cc1)C(=O)O; Phe(3-Me) = Cc1cccc(C[C@H](N)C(=O)O)c1; NMeY = CN[C@@H](Cc1ccc(O)cc1)C(=O)O; NMeF = CN[C@@H](Cc1ccccc1)C(=O)O; 4Pal = N[C@@H](Cc1ccncc1)C(=O)O; Cha = N[C@@H](CC1CCCCC1)C(=O)O; Carboxymethyl = O=C(O)C*; Orn = NCCC[C@H](N)C(=O)O; Dab = NCC[C@H](N)C(=O)O; Dap = NC[C@H](N)C(=O)O; ξV = CC(C)C(N)C(=O)O

For this experiment, the target named is T1, human PD-1 (Jurkat-PD-1 cells) / PE-labeled human PD-L1-Ig (Homo sapiens, UniProt Q15116).
T1 construct: expressed in transfected cells; host or cells: Jurkat cell line over-expressing human PD-1
T1 sequence (Q15116 25-288): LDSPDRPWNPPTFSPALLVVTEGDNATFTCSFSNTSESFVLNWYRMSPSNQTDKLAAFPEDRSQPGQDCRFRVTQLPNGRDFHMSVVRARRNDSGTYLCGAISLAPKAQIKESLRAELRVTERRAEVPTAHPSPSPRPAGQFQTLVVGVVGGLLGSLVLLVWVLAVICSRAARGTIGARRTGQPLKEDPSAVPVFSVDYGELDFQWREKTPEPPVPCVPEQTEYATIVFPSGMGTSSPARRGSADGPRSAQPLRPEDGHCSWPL
In words: Jurkat-PD-1 Cell Binding High-Content Screening Assay (CBA); Jurkat hPD1-PDL1 assay. Particulars: Jurkat cell line over-expressing human PD-1; PE-labeled PD-L1-Ig 20 nM final; compound incubated 2 hours at 37° C.; read-out: Jurkat HPD1-PDL1 IC50. The method in brief: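 Jurkat cells overexpressing human PD-1 (8×10^3 per well, DMEM with 10% FCS) were preincubated with compound for 2 hours at 37° C. PE-labeled human PD-L1-Ig was then added at 20 nM final. Binding was quantified by high-content imaging.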
A word on the IC50: it is the concentration at which inhibition is half-maximal. `Cc1cccc(C[C@@H]2NC(=O)[C@H](CC(=O)O)NC(=O)[C@H](Cc3ccc(C(=O)O)cc3)NC(=O)[C@H](Cc3ccc(OCC(=O)O)cc3)NC(=O)CSC[C@@H](C(=O)N[C@@H](C)C(N)=O)NC(=O)[C@H]([C@@H](C)O)NC(=O)[C@H](C(C)C)NC(=O)[C@H](CC3CCCCC3)NC(=O)[C@H](CCN)NC(=O)[C@H](Cc3ccccc3)N(C)C(=O)[C@H](CCCN)NC(=O)[C@H](CCC(=O)O)NC(=O)[C@H](Cc3ccc(-c4ccccc4)cc3)NC(=O)C(C(C)C)NC2=O)c1` (some centres unmarked) [Example 1449] ({CH2CO}-Y(Carboxymethyl)[Phe(4-COOH)]D[Phe(3-Me)][ξV][Bip]E[Orn][NMeF][Dab][Cha]VTCA-NH2; thioether N-14): the IC50 stood at 30 nM.
Turning to `CC(C)C1NC(=O)[C@H](Cc2c[nH]c3ccccc23)NC(=O)[C@H](CC(=O)O)NC(=O)[C@H](Cc2ccc(C(=O)O)cc2)NC(=O)[C@H](Cc2ccncc2)NC(=O)CSC[C@@H](C(=O)N[C@@H](C)C(N)=O)NC(=O)[C@H]([C@@H](C)O)NC(=O)[C@H](C(C)C)NC(=O)[C@H](CC2CCCCC2)NC(=O)[C@H](CCN)NC(=O)[C@H](Cc2ccc(O)cc2)N(C)C(=O)[C@H](CCCN)NC(=O)[C@H](CCC(=O)O)NC(=O)[C@H](Cc2ccc(-c3ccccc3)cc2)NC1=O` (some centres unmarked) [Example 1450] ({CH2CO}-[4Pal][Phe(4-COOH)]DW[ξV][Bip]E[Orn][NMeY][Dab][Cha]VTCA-NH2; thioether N-14), the IC50 turned out to be 210 nM.
With `CC(C)C1NC(=O)[C@H](Cc2c[nH]c3ccccc23)NC(=O)[C@H](CC(=O)O)NC(=O)[C@H](Cc2ccncc2)NC(=O)[C@H](CN)NC(=O)CSC[C@@H](C(=O)N[C@@H](C)C(N)=O)NC(=O)[C@H]([C@@H](C)O)NC(=O)[C@H](C(C)C)NC(=O)[C@H](CC2CCCCC2)NC(=O)[C@H](CCN)NC(=O)[C@H](Cc2ccc(O)cc2)N(C)C(=O)[C@H](CCCN)NC(=O)[C@H](CCC(=O)O)NC(=O)[C@H](Cc2ccc(-c3ccccc3)cc2)NC1=O` (some centres unmarked) [Example 1451] ({CH2CO}-[Dap][4Pal]DW[ξV][Bip]E[Orn][NMeY][Dab][Cha]VTCA-NH2; thioether N-14), the IC50 came to 520 nM.
The same measure for `CC(C)C1NC(=O)[C@H](Cc2c[nH]c3ccccc23)NC(=O)[C@H](CC(=O)O)NC(=O)[C@H](Cc2ccncc2)NC(=O)[C@H](Cc2ccc(OCC(=O)O)cc2)NC(=O)CSC[C@@H](C(=O)N[C@@H](C)C(N)=O)NC(=O)[C@H]([C@@H](C)O)NC(=O)[C@H](C(C)C)NC(=O)[C@H](CC2CCCCC2)NC(=O)[C@H](CCN)NC(=O)[C@H](Cc2ccc(O)cc2)N(C)C(=O)[C@H](CCCN)NC(=O)[C@H](CCC(=O)O)NC(=O)[C@H](Cc2ccc(-c3ccccc3)cc2)NC1=O` (some centres unmarked) [Example 1452] ({CH2CO}-Y(Carboxymethyl)[4Pal]DW[ξV][Bip]E[Orn][NMeY][Dab][Cha]VTCA-NH2; thioether N-14): 140 nM.
Regarding `CC(C)C1NC(=O)[C@H](Cc2c[nH]c3ccccc23)NC(=O)[C@H](CC(=O)O)NC(=O)[C@H](Cc2ccc(OCC(=O)O)cc2)NC(=O)[C@H](CN)NC(=O)CSC[C@@H](C(=O)N[C@@H](C)C(N)=O)NC(=O)[C@H]([C@@H](C)O)NC(=O)[C@H](C(C)C)NC(=O)[C@H](CC2CCCCC2)NC(=O)[C@H](CCN)NC(=O)[C@H](Cc2ccc(O)cc2)N(C)C(=O)[C@H](CCCN)NC(=O)[C@H](CCC(=O)O)NC(=O)[C@H](Cc2ccc(-c3ccccc3)cc2)NC1=O` (some centres unmarked) [Example 1453] ({CH2CO}-[Dap]Y(Carboxymethyl)DW[ξV][Bip]E[Orn][NMeY][Dab][Cha]VTCA-NH2; thioether N-14), the IC50 was determined as 320 nM.
